Assay results published in the supplement of paper PMC10307832.

Tests used:
Assay in all cases: relative viability (nuclei count vs DMSO), 5 days (fraction); higher = more cells survive
[1] = compound: COC1=C(C=C(C=C1)C2=CC3=NC=CN3C(=N2)NC4=C(C=CC=N4)C(=O)N)OC [BAY61-3606] + O=C(CCCCCCC(=O)Nc1ccccc1)NO [Vorinostat] (partner 1 µM)
Outline: (§1)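 Relative viability divides the nuclei count in treated wells by that in vehicle wells. Lung cancer cell lines were seeded in 1536-well plates, dosed by pin tool the next day, and fixed and stained after 5 days in one step with final 0.05% Triton X-100, 1% formaldehyde and 1 ug/ml Hoechst. Dosing was a single drug or a fixed anchor-drug dose plus five library-drug doses (not always all listed) in √10 steps, and values are medians of duplicate plates imaged at 4×.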

[2] = compound: COC1=C(C=C(C=C1)C2=CC3=NC=CN3C(=N2)NC4=C(C=CC=N4)C(=O)N)OC [BAY61-3606] + Nc1nc2[nH]cc(CCc3ccc(C(=O)N[C@@H](CCC(=O)O)C(=O)O)cc3)c2c(=O)[nH]1 [Pemetrexed] (partner 0.2 µM)
Outline: as §1

[3] = compound: COC1=C(C=C(C=C1)C2=CC3=NC=CN3C(=N2)NC4=C(C=CC=N4)C(=O)N)OC [BAY61-3606] + COc1cccc2cc(-c3nc([C@H]4CC[C@H](C(=O)O)CC4)n4ncnc(N)c34)[nH]c12 [OSI-027] (partner 0.5 µM)
Outline: as §1

[4] = compound: COC1=C(C=C(C=C1)C2=CC3=NC=CN3C(=N2)NC4=C(C=CC=N4)C(=O)N)OC [BAY61-3606] + CS(=O)(=O)CCNCc1ccc(-c2ccc3ncnc(Nc4ccc(OCc5cccc(F)c5)c(Cl)c4)c3c2)o1 [Lapatinib] (partner 2 µM)
Outline: as §1

Q: Which results are given for UMC-11?
A: relative viability ([1]; first compound 0.02 µM): 0.43; relative viability ([1]; first compound 0.06325 µM): 0.385; relative viability ([1]; first compound 0.2 µM): 0.436; relative viability ([1]; first compound 0.6325 µM): 0.465; relative viability ([1]; first compound 2 µM): 0.326; relative viability ([2]; first compound 0.02 µM): 0.813; relative viability ([2]; first compound 0.06325 µM): 0.795; relative viability ([2]; first compound 0.2 µM): 0.789; relative viability ([2]; first compound 0.6325 µM): 0.781; relative viability ([2]; first compound 2 µM): 0.612; relative viability ([3]; first compound 0.02 µM): 0.544; relative viability ([3]; first compound 0.06325 µM): 0.467; relative viability ([3]; first compound 0.2 µM): 0.476; relative viability ([3]; first compound 0.6325 µM): 0.461; relative viability ([3]; first compound 2 µM): 0.375; relative viability ([4]; first compound 0.02 µM): 1.16; relative viability ([4]; first compound 0.06325 µM): 0.944; relative viability ([4]; first compound 0.2 µM): 0.832; relative viability ([4]; first compound 0.6325 µM): 1.1; relative viability ([4]; first compound 2 µM): 0.958
